{"source": "ChEMBL document CHEMBL3734743", "about": "“Potent complement C3a receptor agonists derived from oxazole amino acids: Structure-activity relationships” (Bioorg Med Chem Lett, 2015)", "key": {"[1]": {"target": "T1, C3a anaphylatoxin chemotactic receptor (Homo sapiens) (UniProt Q16581)", "T1 sequence (whole entry)": "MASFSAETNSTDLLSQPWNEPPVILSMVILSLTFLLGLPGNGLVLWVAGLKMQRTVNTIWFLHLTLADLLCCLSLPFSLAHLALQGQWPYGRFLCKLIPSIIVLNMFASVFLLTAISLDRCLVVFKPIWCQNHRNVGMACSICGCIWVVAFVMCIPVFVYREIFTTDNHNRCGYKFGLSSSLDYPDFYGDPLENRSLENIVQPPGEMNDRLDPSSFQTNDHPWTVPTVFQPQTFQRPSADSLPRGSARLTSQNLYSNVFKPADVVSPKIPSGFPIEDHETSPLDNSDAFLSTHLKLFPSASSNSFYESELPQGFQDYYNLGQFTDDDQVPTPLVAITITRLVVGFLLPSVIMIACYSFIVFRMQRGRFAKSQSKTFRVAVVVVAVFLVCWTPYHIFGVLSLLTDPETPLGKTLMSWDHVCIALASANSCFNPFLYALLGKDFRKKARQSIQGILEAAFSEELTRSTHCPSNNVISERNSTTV", "test": "Displacement of [125I]-C3a from C3aR in human MDM cells at 10 uM after 60 mins by microbeta scintillation counting analysis", "type": "cell-based"}, "[2]": {"target": "T2, C5a anaphylatoxin chemotactic receptor 1 (Homo sapiens) (UniProt P21730)", "T2 sequence (whole entry)": "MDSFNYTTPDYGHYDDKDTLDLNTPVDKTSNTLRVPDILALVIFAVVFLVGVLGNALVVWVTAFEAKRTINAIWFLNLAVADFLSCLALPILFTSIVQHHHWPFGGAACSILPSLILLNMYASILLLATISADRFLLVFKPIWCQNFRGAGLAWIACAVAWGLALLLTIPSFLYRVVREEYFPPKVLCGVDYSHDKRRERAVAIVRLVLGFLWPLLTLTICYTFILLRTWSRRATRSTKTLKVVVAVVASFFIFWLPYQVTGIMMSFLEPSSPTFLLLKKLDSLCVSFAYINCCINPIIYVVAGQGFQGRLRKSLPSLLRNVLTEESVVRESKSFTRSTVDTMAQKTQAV", "test": "Displacement of [125I]-C5a from C5aR in human MDM cells at 20 uM after 60 mins by microbeta scintillation counting analysis", "type": "cell-based"}, "[3]": {"target": "T3, C3a anaphylatoxin chemotactic receptor (Homo sapiens, UniProt Q16581)", "T3 sequence (Q16581 whole entry)": "T1 sequence (whole entry)", "test": "Displacement of [125I]-C3a from C3aR in human MDM cells after 60 mins by microbeta scintillation counting analysis", "type": "cell-based"}, "[4]": {"target": "T3, C3a anaphylatoxin chemotactic receptor", "test": "Agonist activity at C3aR in human MDM cells assessed as inhibition of C3a-induced Ca2+ response measured for 60 secs by fluorescence assay", "type": "functional, cell-based"}, "[5]": {"target": "T1, C3a anaphylatoxin chemotactic receptor (Homo sapiens)", "test": "Agonist activity at C3aR in human MDM cells assessed as induction of intracellular Ca2+ release measured for 60 secs in presence of C3a antagonist SB290157 by fluorescence assay", "type": "functional, cell-based"}, "[6]": {"target": "T1, C3a anaphylatoxin chemotactic receptor (Homo sapiens)", "test": "Agonist activity at C3aR in human MDM cells assessed as intracellular calcium efflux at 1 uM measured for 60 secs by fluorescence based receptor desensitization assay", "type": "functional, cell-based"}}, "note": "Calls of active or inactive are those of the source. No cut-off for these calls is given here.", "data": [{"compound": "CC(C)C[C@H](NC(=O)OC(C)(C)C)c1nc(C(=O)N[C@@H](CCCNC(N)=O)C(=O)O)co1", "values": [{"measurement": "inhibition", "setting": "[1]", "result": "inactive"}, {"measurement": "inhibition", "setting": "[2]", "result": "inactive"}]}, {"compound": "Cc1oc([C@H](CC(C)C)NC(=O)OC(C)(C)C)nc1C(=O)N[C@@H](CCCNC(=N)N)C(=O)O", "values": [{"measurement": "inhibition", "setting": "[2]", "result": "inactive"}, {"measurement": "IC50", "setting": "[3]", "result": 14, "unit": "nM"}, {"measurement": "EC50", "setting": "[4]", "result": 45, "unit": "nM"}, {"measurement": "Activity", "setting": "[5]", "result": "inactive"}, {"measurement": "Activity", "setting": "[6]", "result": "inactive"}]}, {"compound": "CC[C@H](C)[C@H](NC(=O)c1cncc(Br)c1)c1nc(C(=O)NCCCCNC(=N)N)c(C)o1", "values": [{"measurement": "inhibition", "setting": "[1]", "result": "inactive"}, {"measurement": "inhibition", "setting": "[2]", "result": "inactive"}]}, {"compound": "CC(C)C[C@H](NC(=O)OC(C)(C)C)c1nc(C(=O)N[C@@H](CCCNC(=N)N)C(=O)O)co1", "values": [{"measurement": "inhibition", "setting": "[2]", "result": "inactive"}, {"measurement": "IC50", "setting": "[3]", "result": 20, "unit": "nM"}, {"measurement": "EC50", "setting": "[4]", "result": 19, "unit": "nM"}, {"measurement": "Activity", "setting": "[6]", "result": "inactive"}]}, {"compound": "CC(C)C[C@H](NC(=O)c1c[nH]c2ccccc12)c1nc(C(=O)N[C@@H](CCCNC(=N)N)C(=O)O)co1", "values": [{"measurement": "inhibition", "setting": "[2]", "result": "inactive"}, {"measurement": "Activity", "setting": "[5]", "result": "inactive"}, {"measurement": "Activity", "setting": "[6]", "result": "inactive"}]}]}
